# Laboratory results reported in ChEMBL document CHEMBL3112402, “Chemical constituents of Plectranthus amboinicus and the synthetic analogs possessing anti-inflammatory activity” (Bioorg Med Chem, 2014).
# Assays:
# Transcription factor Jun = Transcription factor Jun (Homo sapiens, UniProt P05412); experiment: Inhibition of transcription factor AP-1 binding to oligonucleotide containing TPA-responsive element in TPA-activated human HeLa cells after 1 hr by ELISA; format: cell-based
# [1] = Antiinflammatory activity in PMA-activated human U937 cells assessed as inhibition of LPS-induced TNF-alpha expression preincubated for 2 hrs followed by LPS challenge measured after 6 hrs by ELISA; format: functional, cell-based; settings: U-937
# Sequence of Transcription factor Jun (P05412 whole entry): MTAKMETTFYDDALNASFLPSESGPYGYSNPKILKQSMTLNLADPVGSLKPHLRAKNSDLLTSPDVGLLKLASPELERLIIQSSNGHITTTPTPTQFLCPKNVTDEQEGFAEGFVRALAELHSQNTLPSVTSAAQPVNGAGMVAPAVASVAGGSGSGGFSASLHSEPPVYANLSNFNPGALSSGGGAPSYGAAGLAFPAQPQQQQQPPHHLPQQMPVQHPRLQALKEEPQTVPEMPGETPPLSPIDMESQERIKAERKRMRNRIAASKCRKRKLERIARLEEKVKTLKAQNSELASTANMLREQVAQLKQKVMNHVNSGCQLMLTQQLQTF
Structure (SMILES),IC50 (Transcription factor Jun) [µM],IC50 [1] [µM]
O=C(O)/C(=C\c1ccc(O)c(O)c1)C(c1ccc(O)c(O)c1)C(O)C(=O)O (stereo not drawn),11.9,–
O=C(O[C@H](Cc1ccc(O)c(O)c1)C(=O)O)[C@H]1[C@H](C(=O)O[C@H](Cc2ccc(O)c(O)c2)C(=O)O)[C@H](c2ccc(O)c(O)c2)[C@H]1c1ccc(O)c(O)c1,1.3,–
O=C(O[C@H](Cc1ccc(O)c(O)c1)C(=O)O)C1=Cc2ccc(O)c(O)c2C(C(=O)O[C@H](Cc2ccc(O)c(O)c2)C(=O)O)C1c1ccc(O)c(O)c1 (stereo partly drawn),1.6,–
C/C=C1\C(=O)C=C(C(C)C)C1=O,–,23.7
CC1=CC(=O)/C(=C\C(C)C)C1=O,–,10.1
CC(C)C=C1C(=O)C=CC1=O,–,5.1
O=C(/C=C/c1ccc(O)c(O)c1)O[C@H](Cc1ccc(O)c(O)c1)C(=O)O [ROSMARINIC ACID],16.2,–
CC1=CC(=O)C(C(C)C)=CC1=O [THYMOQUINONE],–,102
